Source: patent publication US12286389B2, “Crystalline form a of 2, 2-bis(4-fluorophenyl)-2-phenylacetamide and preparation method therefor and application thereof” (SHENZHEN RENTAI PHARMATECH LTD., priority 2019, dated 2025)

Key:
Format in all cases: physicochemical
[1] = Light stability of the crystal form (XRPD comparison with day 0); conditions: 25° C., 4500 Lux, XRPD vs day 0
Description: (1) Light stability: the test sample is placed in an environment having a temperature of 25° C. and a light condition of 4500 Lux for 5 days and 10 days, respectively, to test the stability of the crystal form, which are compared with XRPD pattern of the crystal form A on day 0.
(1) Light stability: by referring to the same method of light stability test for crystal A, the test sample is placed in an environment having a temperature of 25° C. and a light condition of 4500 Lux for 5 days to test the stability of the crystal form, which is compared with XRPD pattern of the crystal form I on day 0.

[2] = Hygroscopicity study by dynamic vapor sorption (DVS); conditions: 25° C., RH 10% per step, 10 min per step
Description: Dynamic Vapor Sorption DVS
Model: DVS intrinsic (SMS, British);
Method: 25° C., relative humidity is stepped up at a rate of 10%, the judgment standard is change in moisture content is <0.02% over a 10-minute period.
Dynamic vapor sorption (DVS) experiment are performed for crystal form A in Example 2 to obtain DVS curves under the following conditions: the temperature is 25° C., the relative humidity (RH) is stepped up from RH 0 to RH 90% at a rate of RH 10% per step, with 10 min for each step to reach equilibrium.

[3] = High-temperature stability of the crystal form (XRPD comparison with day 0); conditions: 60° C., XRPD vs day 0
Description: (2) High-temperature stability: the test sample is placed at a temperature of 60° C. for 5 days and 10 days, respectively, to test the stability of the crystal form, which are compared with XRPD pattern of the crystal form A on day 0.
(2) High-temperature stability: by referring to the same method of high-temperature stability test for crystal A, the test sample is placed at a temperature of 60° C. for 5 days to test the stability of the crystal form, which is compared with XRPD pattern of the crystal form I on day 0.

[4] = High-humidity stability 2 of the crystal form (XRPD comparison with day 0); conditions: 75% RH, 40° C., XRPD vs day 0
Description: (4) High-humidity stability 2: the test sample is placed in an environment having a humidity of 75% RH and a temperature of 40° C. for 5 days and 10 days, respectively, to test the stability of the crystal form, which are compared with XRPD pattern of the crystal form A on day 0.
(4) High-humidity stability 2: by referring to the same method of high-humidity stability test 2 for crystal A, the test sample is placed in an environment having a humidity of 75% RH and a temperature of 40° C. for 5 days to test the stability of the crystal form, which are compared with XRPD pattern of the crystal form I on day 0.

[5] = High-humidity stability 1 of the crystal form (XRPD comparison with day 0); conditions: 92.5% RH, 25° C., XRPD vs day 0
Description: (3) High-humidity stability 1: the test sample is placed in an environment having a humidity of 92.5% RH and a temperature of 25° C. for 5 days and 10 days, respectively, to test the stability of the crystal form, which are compared with XRPD pattern of the crystal form A on day 0.
(3) High-humidity stability 1: by referring to the same method of high-humidity stability test 1 for crystal A, the test sample is placed in an environment having a humidity of 92.5% RH and a temperature of 25° C. for 5 days to test the stability of the crystal form, which are compared with XRPD pattern of the crystal form I on day 0.

| Compound | light stability of the crystal form ([1]; 5 days and 10 days) | weight change in each step of 10 min [2] | high-temperature stability of the crystal form ([3]; 5 days and 10 days) | high-humidity stability 2 of the crystal form ([4]; 5 days and 10 days) | high-humidity stability 1 of the crystal form ([5]; 5 days and 10 days) | light stability of the crystal form ([1]; 5 days) | high-temperature stability of the crystal form ([3]; 5 days) | high-humidity stability 2 of the crystal form ([4]; 5 days) | high-humidity stability 1 of the crystal form ([5]; 5 days) |
| --- | --- | --- | --- | --- | --- | --- | --- | --- | --- |
| NC(=O)C(c1ccccc1)(c1ccc(F)cc1)c1ccc(F)cc1 [crystal form A, 2,2-bis(4-fluorophenyl)-2-phenylacetamide] | good light stability | less than 0.02% | good high-temperature stability | good high-humidity stability | good high-humidity stability | – | – | – | – |
| NC(=O)C(c1ccccc1)(c1ccc(F)cc1)c1ccc(F)cc1 [crystal form I, 2,2-bis(4-fluorophenyl)-2-phenylacetamide, reference compound] | – | – | – | – | – | unstable under lights and easily transforms into crystal form A | unstable under high temperatures and easily transforms into crystal form A | unstable under high humidity and easily transforms into crystal form A | unstable under high humidity and easily transforms into crystal form A |
